Reference: patent US6063777A, “Iminochlorinaspartic acid derivatives” (Wyeth Lederle Japan, Ltd., priority 1996, dated 2000)

Key:
[1] = Laser irradiation to extirpated organ: distribution (cancer/organ ratio) by surface fluorescence, N2-pulsed laser, mice bearing Colon 26; type: in vivo, CDF1 mice; conditions: mouse, tumor/plasma, sodium salt, 10 mg/kg intravenous
Procedure: (§1) CDF1 mice (5 per group) were implanted with tumor tissues of colon cancer Colon 26. Two weeks after the implantation, the mice were given an intravenous injection of sodium salt of each of compounds (I) and (II) (10 mg/kg for each mouse) which had been diluted with a distilled water for injection. At 3 hrs, 6 hrs and 12 hrs after the injection, the blood samples were collected and the organs bearing the tumor tissue were extirpated, irradiated with N2 -pulsed laser (N2, wavelength: 337 nm, 2 ns), and the excited fluorescent spectrum was measured. The wavelengths in the range of 600 to 900 nm were examined based on the peak wavelength of NADH at 470 nm (determination of the distribution of the test compound in the organ by the surface fluorescence method using N2 -pulsed laser spectrophotometry). That is, cancer/organ (or plasma) ratio was determined by calculating the peak wavelength in the range of 600 to 900 nm when the peak wavelength at 470 nm was considered as the basic value, 1.

colon cancer Colon 26 = experiment: as above; type: in vivo, CDF1 mice; conditions: for Cancer/Brain ratio / Cancer/Kidney ratio / Cancer/Liver ratio / Cancer/Lung ratio / Cancer/Muscle ratio: sodium salt, 10 mg/kg intravenous
Procedure: as §1

retinal capillaries = experiment: Occlusion of retinal capillaries by PDT, histological findings 24 hours after laser irradiation; type: in vivo, rats (Long Evance Rats); conditions: 16 mg/kg
Procedure: The following experiments were performed to investigate the optimal treatment parameters (timing of laser irradiation after dosing of the compound; laser irradiation dosage) for selective occlusion of choroidal neoplastic vessels by PDT using the compound of the present invention and a diode laser (produced by Hamamatsu Photonics; wavelength: 672 nm).
(§2) Photocoagulation was induced in rats (Long Evance Rats weighing 200-300 g) by Argon green laser irradiation (irradiation diameter: 100 μm, 140 mW, 0.1 sec) near the retinal papilla on funduc oculi. Ten days after photocoagulation, fundus photographs and fluorescein angiographs were taken and the animals showing development of choroidal neovascularization were used for experiments at the 11th day.
(§3) The compound of the present invention was administered via the tail vein at a dose of 16 mg/kg. After administration, time course distribution of the compound in the eyeball tissues was observed by fluorescence microscopy.
Laser irradiation was done by using the above-mentioned diode laser. The laser beam was confirmed to extend in the range of 500 μm in diameter on the retinal surface. Duration of irradiation was 4 minutes and the irradiation intensity varied at 30.6, 91.7, 152.9 and 244.9 mW/cm^2 on the retinal surface. These values correspond to 7.4, 22.0, 36.7 and 58.8 J/cm^2, respectively.
Assessment of the PDT using the compound of the present invention was made based on the fundus photographs taken with a fundus camera (produced by Jenesis Kowa) at 1 hour and 24 hours after laser irradiation. Occlusion of the neoplastic vessels and damage to the surrounding tissues were investigated by fluorescein antiography and histological examinations to assess the selectivity of the therapeutic effect.

eyeball tissues = experiment: Time course distribution of the compound in eyeball tissues by fluorescence microscopy; type: in vivo, rats (Long Evance Rats); conditions: 16 mg/kg tail vein
Procedure: as §2, §3

C=Cc1c(C)c2cc3nc(cc4[nH]c(cc5nc(cc1[nH]2)C(C)=C5CCC(=O)NC(CC(=O)O)C(=O)O)c(CCC(=O)NC(CC(=O)O)C(=O)O)c4C)C(C)(O)C3=CC=NO (centres unmarked) [Compound (I)]
Kp at 3 h ([1]; 3 hr): 1.48 | Kp at 6 h ([1]; 6 hr): 1.18 | Kp at 12 h ([1]; 12 hr): 2.37 | Cancer/Brain ratio (colon cancer Colon 26; 3 hr): 11.24 | Cancer/Kidney ratio (colon cancer Colon 26; 3 hr): 1.54 | Cancer/Liver ratio (colon cancer Colon 26; 3 hr): 1.35 | Cancer/Lung ratio (colon cancer Colon 26; 3 hr): 5.02 | Cancer/Muscle ratio (colon cancer Colon 26; 3 hr): 4.19 | Cancer/Brain ratio (colon cancer Colon 26; 6 hr): 15.14 | Cancer/Kidney ratio (colon cancer Colon 26; 6 hr): 1.36 | Cancer/Liver ratio (colon cancer Colon 26; 6 hr): 2.02 | Cancer/Lung ratio (colon cancer Colon 26; 6 hr): 7.85 | Cancer/Muscle ratio (colon cancer Colon 26; 6 hr): 3.72 | Cancer/Brain ratio (colon cancer Colon 26; 12 hr): 15.0 | Cancer/Kidney ratio (colon cancer Colon 26; 12 hr): 1.27 | Cancer/Liver ratio (colon cancer Colon 26; 12 hr): 0.92 | Cancer/Lung ratio (colon cancer Colon 26; 12 hr): 6.45 | Cancer/Muscle ratio (colon cancer Colon 26; 12 hr): 4.73 | accumulability to cancerous tissues (colon cancer Colon 26; compared with position isomer): much higher accumulability to cancerous tissues as compared with its position isomer | Occlusion of retinal capillaries (retinal capillaries; 7.4 J/cm^2, irradiation 60 min after administration): Closed | Occlusion of retinal capillaries (retinal capillaries; 7.4 J/cm^2, irradiation 120 min after administration): Open | Occlusion of retinal capillaries (retinal capillaries; 7.4 J/cm^2, irradiation 240 min after administration): Open | Occlusion of retinal capillaries (retinal capillaries; 22.0 J/cm^2, irradiation 60 min after administration): Closed | Occlusion of retinal capillaries (retinal capillaries; 22.0 J/cm^2, irradiation 120 min after administration): Open | Occlusion of retinal capillaries (retinal capillaries; 22.0 J/cm^2, irradiation 240 min after administration): Open | Occlusion of retinal capillaries (retinal capillaries; 22.0 J/cm^2, irradiation immediately after administration): Closed | Occlusion of retinal capillaries (retinal capillaries; 36.7 J/cm^2, irradiation 60 min after administration): Closed | Occlusion of retinal capillaries (retinal capillaries; 36.7 J/cm^2, irradiation 120 min after administration): Closed | Occlusion of retinal capillaries (retinal capillaries; 36.7 J/cm^2, irradiation 240 min after administration): Closed | Occlusion of retinal capillaries (retinal capillaries; 36.7 J/cm^2, irradiation immediately after administration): Closed | Occlusion of retinal capillaries (retinal capillaries; 58.8 J/cm^2, irradiation 60 min after administration): Closed | Occlusion of retinal capillaries (retinal capillaries; 58.8 J/cm^2, irradiation 120 min after administration): Closed | Occlusion of retinal capillaries (retinal capillaries; 58.8 J/cm^2, irradiation 240 min after administration): Closed | Occlusion of retinal capillaries (retinal capillaries; 58.8 J/cm^2, irradiation immediately after administration): Closed | fluorescence in choroid, lumens of choriocapillaris, choroidal arteries and veins (eyeball tissues; 5 minutes after administration): fluorescence was observed in the lumens of the choriocapillaris, choroidal arteries and veins | fluorescence in choroidal artery wall (eyeball tissues; 5 minutes after administration): also observed in the choroidal artery wall | fluorescence in retina, artery wall (eyeball tissues; 5 minutes after administration): prominent fluorescence was observed in the artery wall | fluorescence in retina, lumens of the blood capillaries (eyeball tissues; 5 minutes after administration): weak fluorescence was observed in the lumens of the blood capillaries | fluorescence in the entire choroidal neovascular tissues (eyeball tissues; 5 minutes after administration): weak fluorescence | fluorescence intensity, neoplastic vessels versus surrounding tissues (eyeball tissues; 5 minutes after administration): did not clearly differ between the neoplastic vessels and the surrounding tissues | fluorescence from the whole neoplastic vessels (eyeball tissues; 30 minutes to 1 hour after administration): fluorescence from the whole neoplastic vessels increased | fluorescence in choroidal artery wall (eyeball tissues; 2 hours after administration): prominent fluorescence was observed in the choroidal artery wall | fluorescence in lumens of large choroidal vessels and retinal artery wall (eyeball tissues; 2 hours after administration): diminished | fluorescence in the choriocapillaris veins (eyeball tissues; 2 hours after administration): disappeared | fluorescence in choroidal artery wall and retinal vessels (eyeball tissues; 4 hours after administration): gradually diminished | fluorescence in the choroidal neoplastic vessels (eyeball tissues; 4 hours after administration): persisted | fluorescence in choroidal neoplastic vessels and other vessels (eyeball tissues; 24 hours after administration): all disappeared
